Reference: US6500853B1, “Inhibitors of phospholipase enzymes” (Genetics Institute, LLC, priority 1998, dated 2002)
Values belong to the compound of their own block, whether it stands above or below them.

Molecular target: T1, cPLA2 (Homo sapiens, UniProt P47712)
T1 sequence (P47712 1-749): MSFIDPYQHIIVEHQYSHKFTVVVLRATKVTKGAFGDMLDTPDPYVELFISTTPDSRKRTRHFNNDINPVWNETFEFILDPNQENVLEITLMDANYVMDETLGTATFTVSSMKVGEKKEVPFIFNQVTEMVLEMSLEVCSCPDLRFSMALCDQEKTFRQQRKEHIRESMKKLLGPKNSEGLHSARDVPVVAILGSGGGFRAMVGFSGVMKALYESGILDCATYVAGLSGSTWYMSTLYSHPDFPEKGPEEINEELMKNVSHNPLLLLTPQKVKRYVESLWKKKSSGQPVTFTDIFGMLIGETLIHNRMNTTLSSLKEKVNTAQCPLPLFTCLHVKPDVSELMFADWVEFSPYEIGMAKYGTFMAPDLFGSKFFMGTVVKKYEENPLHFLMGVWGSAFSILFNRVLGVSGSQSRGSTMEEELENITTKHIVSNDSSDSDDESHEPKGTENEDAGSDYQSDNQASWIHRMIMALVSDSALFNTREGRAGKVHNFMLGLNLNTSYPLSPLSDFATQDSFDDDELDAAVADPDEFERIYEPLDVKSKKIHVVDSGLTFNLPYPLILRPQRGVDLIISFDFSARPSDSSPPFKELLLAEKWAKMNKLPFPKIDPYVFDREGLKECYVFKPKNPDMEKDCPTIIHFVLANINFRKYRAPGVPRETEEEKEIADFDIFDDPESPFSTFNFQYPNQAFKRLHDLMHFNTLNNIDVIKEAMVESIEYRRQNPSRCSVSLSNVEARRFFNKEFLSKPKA
Assay: Coumarin Assay (cPLA2 inhibition)
Type: biochemical
Details: for inhibition at 11 µM: CONCENTRATION 11 micromolar; for inhibition at 20 µM: CONCENTRATION 20 micromolar
Protocol: Table I reports data for the compounds described in the examples above in cPLA2 inhibition assays (described below). In the data columns of Tables I and II, assay results are reported as a percent inhibition at the concentration specified.
7-hydroxycoumarinyl 6-heptenoate was used as a monomeric substrate for cPLA2 as reported previously (Huang, Z. et al., 1994, Nalytical Biochemistry 222, 110-115). Inhibitors were mixed with 200 μL assay buffer (80 mM Heped, pH 7.5, 1 mM EDTA) containing 60 μM 7-hydroxycoumarinyl 6-heptenoate. The reaction was initiated by adding 4 μg cPLA2 in 50 μL assay buffer. Hydrolysis of the 7-hydroxycounarimyl 6-heptenoate ester was monitored in a fluorometer by exciting at 360 nm and monitoring emission at 460 nm. Enzyme activity is proportional to the increase in emission at 460 nm per minute. In the presence of a cPLA2 inhibitor, the rate of increase is less. The percent inhibition for corresponding concentrations of compounds herein in this Coumarin assay are provided below in Table I.

[1] = CONCENTRATION 100 micromolar, read-out: PERCENT INHIBITION @

- % Inhibition (Conc 0.31 uM): 58%
Compound: 3-{4-[2-(1-benzhydryl-5-chloro-2-{[(2,6-difluorobenzyl)oxy]methyl}-1H-indol-3-yl)ethoxy]phenyl}propanoic acid [Example 166]

- inhibition at 50 µM (CONCENTRATION 50 micromolar, read-out: PERCENT INHIBITION @): 7%
- inhibition at 100 µM [1]: 18%
- inhibition at 170 µM (CONCENTRATION 170 micromolar, read-out: PERCENT INHIBITION @): 50%
Compound: CCCn1cc(Cc2ccc(C(=O)O)cc2OC)c2cc(NC(=O)OC3CCCC3)ccc21 [Example 1, 4-[(5-{[(cyclopentyloxy)carbonyl]amino}-1-propyl-1H-indol-3-yl)methyl]-3-methoxybenzoic acid]

- inhibition at 5 µM (CONCENTRATION 5 micromolar, read-out: PERCENT INHIBITION @): 50%
- inhibition at 11 µM (read-out: PERCENT INHIBITION @): 50%
Compound: COc1cc(C(=O)O)ccc1Cc1cn(Cc2ccc3ccccc3c2)c2ccc(NC(=O)OC3CCCC3)cc12 [Example 4, 4-{[5-{[(cyclopentyloxy)carbonyl]amino}-1-(2-naphthylmethyl)-1H-indol-3-yl]methyl}3-methoxybenzoic acid]

- PERCENT INHIBITION @ (CONCENTRATION 100 micromolar): 41%
- PERCENT INHIBITION @ (CONCENTRATION 120 micromolar): 50%
Compound: COc1cc(C(=O)O)ccc1Cc1cn(CC2CC2)c2ccc(NC(=O)OC3CCCC3)cc12 [Example 5, 4-{[5-{[(cyclopentyloxy)carbonyl]aminol}-1-(cyclopropylmethyl)-1H-indol-3-yl]methyl}-3-methoxybenzoic acid]

- inhibition at 100 µM [1]: 11%
- inhibition at 200 µM (CONCENTRATION 200 micromolar, read-out: PERCENT INHIBITION @): 50%
Compound: COc1cc(C(=O)O)ccc1Cc1cn(Cc2ccncc2)c2ccc(NC(=O)OC3CCCC3)cc12 [Example 6, 4-{[5-{[(cyclopentyloxy)carbonyl]amino}-1-(4-pyridinylmethyl)-1H-indol-3-yl]methyl}-3-methoxybenzoic acid]

- PERCENT INHIBITION @ (CONCENTRATION 1.2 micromolar): 50%
- PERCENT INHIBITION @ (CONCENTRATION 1.3 micromolar): 50%
- PERCENT INHIBITION @ (CONCENTRATION 1.9 micromolar): 50%
- PERCENT INHIBITION @ (CONCENTRATION 2 micromolar): 50%
Compound: COc1cc(C(=O)O)ccc1Cc1cn(C(c2ccccc2)c2ccccc2)c2ccc(S(C)(=O)=O)cc12 [Example 18, 4-{[l-benzhydryl-5-(methylsulfonyl)-1H-indol-3-yl]methyl}-3-methoxybenzoic acid]

- inhibition at 2.2 µM (CONCENTRATION 2.2 micromolar, read-out: PERCENT INHIBITION @): 50%
- inhibition at 4.2 µM (CONCENTRATION 4.2 micromolar, read-out: PERCENT INHIBITION @): 50%
- inhibition at 5.8 µM (CONCENTRATION 5.8 micromolar, read-out: PERCENT INHIBITION @): 50%
- inhibition at 6.25 µM (CONCENTRATION 6.25 micromolar, read-out: PERCENT INHIBITION @): 52%
- inhibition at 7.8 µM (CONCENTRATION 7.8 micromolar, read-out: PERCENT INHIBITION @): 50%
- inhibition at 9 µM (CONCENTRATION 9 micromolar, read-out: PERCENT INHIBITION @): 50%
- inhibition at 11 µM (read-out: PERCENT INHIBITION @): 50%
- inhibition at 12 µM (CONCENTRATION 12 micromolar, read-out: PERCENT INHIBITION @): 50%
Compound: COc1cc(C(=O)NS(=O)(=O)c2ccccc2C)ccc1Cc1cn(C(c2ccccc2)c2ccccc2)c2ccc(NC(=O)OC3CCCC3)cc12 [Example 19, Cyclopentyl N-{1-benzhydryl-3-[2-methoxy-4-({[(2-methylphenyl)sulfonyl]amino}carbonyl)benzyl]-1H-indol-5-yl}carbamate]

- inhibition at 25 µM (CONCENTRATION 25 micromolar, read-out: PERCENT INHIBITION @): 50%
- inhibition at 32 µM (CONCENTRATION 32 micromolar, read-out: PERCENT INHIBITION @): 50%
Compound: CCCn1cc(Cc2ccc(C(=O)NS(=O)(=O)c3ccccc3C)cc2OC)c2cc(NC(=O)OC3CCCC3)ccc21 [Example 20, Cyclopentyl N-{3-[2-methoxy-4-({[(2-methylphenyl)sulfonyl]amino}carbonyl)benzyl]-1-propyl-1H-indol-5-yl}carbamate]

- inhibition at 20 µM (read-out: PERCENT INHIBITION @): 50%
Compound: COc1cc(C(=O)NS(=O)(=O)c2ccccc2C)ccc1Cc1cn(CC2CC2)c2ccc(NC(=O)OC3CCCC3)cc12 [Example 21, Cyclopentyl N-{1-(cyclopropylmethyl)-3-[2-methoxy-4-({[(2-methylphenyl)sulfonyl]amino}carbonyl)benzyl]-1H-indol-5-yl}carbamate]

- inhibition at 38 µM (CONCENTRATION 38 micromolar, read-out: PERCENT INHIBITION @): 50%
- inhibition at 40 µM (CONCENTRATION 40 micromolar, read-out: PERCENT INHIBITION @): 50%
Compound: COc1cc(C(=O)NS(=O)(=O)c2ccccc2C)ccc1Cc1cn(Cc2ccncc2)c2ccc(NC(=O)OC3CCCC3)cc12 [Example 22, Cyclopentyl N-[3-[2-methoxy-4-({[(2-methylphenyl)sulfonyl]amino}carbonyl)benzyl]-1-(4-pyridinylmethyl)-1H-indol-5-yl]carbamate]

- inhibition at 10 µM (CONCENTRATION 10 micromolar, read-out: PERCENT INHIBITION @): 50%
- inhibition at 20 µM (read-out: PERCENT INHIBITION @): 58%
Compound: COc1cc(C(=O)NS(=O)(=O)c2ccccc2C)ccc1Cc1cn(Cc2ccc3ccccc3c2)c2ccc(NC(=O)OC3CCCC3)cc12 [Example 23, Cyclopentyl N-[3-[2-methoxy-4-({[(2-methylphenyl)sulfonyl]amino}carbonyl)benzyl]-1-(2-naphthylmethyl)-1H-indol-5-yl]carbamate]
